{"source": "paper PMC5651374", "about": "(Alzheimer's & Dementia : Translational Research & Clinical …, 2016)", "details": "brain imaging", "data": [{"compound": "C[N+]1=C(C=CC=CC=C2N(CCCCCC(=O)ON3C(=O)CCC3=O)c3ccc4ccccc4c3C2(C)C)C(C)(C)c2c1ccc1ccccc21.[Cl-]", "note": "[Cy5 dye, Cyanine5.5 NHS ester dye]", "values": [{"measurement": "ability to cross the BBB, dye injected alone", "result": "could not on its own cross the BBB"}]}]}
